The results in this text go back to patent US9655865B2, “Therapeutic treatment for metabolic syndrome, type 2 diabetes, obesity, or prediabetes” (VeroScience, LLC, priority 2002, dated 2017).

In assay [1] the test system is Female ob/ob obese diabetic mice. Kind of assay: Bromocriptine and GBR 12909, alone and combined, 14 days in ob/ob mice (Example 8). The format is in vivo. The conditions noted are these: bromocriptine 10 mg/kg, GBR 12909 20 mg/kg, daily 14 days, FIG. 10. Here is the method:
The effects of adding GBR (a selective dopamine reuptake inhibitor) to bromocriptine (a dopamine D2 receptor agonist that can reduce central norepinephrine neuronal activity) in an effort to circumvent the impact of the D2 receptor agonist effect to reduce endogenous dopamine and to therefore improve metabolic disorders was examined in ob/ob mice treated with either vehicle, bromocriptine (BC) (10 mg/kg), GBR 12909 (20 mg/kg) or bromocriptine (10 mg/kg) plus GBR 12909 (20 mg/kg). Female ob/ob obese diabetic mice were fed standard chow and different groups of animals (n=5-7 group) were treated daily for 14 days with bromocriptine (to reduce norepinephrine neuronal activity) (10 mg/kg), GBR 12909 (to increase dopaminergic neuronal activity) (20 mg/kg) or with bromocriptine (10 mg/kg) plus GBR 12909 (20 mg/kg), or vehicle. […] BC had no effect on blood glucose level. The BC/GBR effect on blood glucose level was more than additive of the individual effects of BC and GBR combined (FIG. 10)

The subject of assay [2] is mice fed a high fat diet for 20 weeks. Kind of assay: Bromocriptine and GBR 12909, alone and combined, in high fat diet mice (Example 12). The assay is classed as in vivo. The note with it: bromocriptine 5 mg/kg, GBR 12909 5 mg/kg. How it is done: The effects of adding GBR (a selective dopamine reuptake inhibitor) to bromocriptine (a dopamine D2 receptor agonist that can reduce central norepinephrine neuronal activity) in an effort to circumvent the impact of the D2 receptor agonist effect to reduce endogenous dopamine and to therefore improve metabolic disorders was examined in mice fed a high fat diet for 20 weeks and then treated with either vehicle, bromocriptine (BC) (5 mg/kg), GBR 12909 (5 mg/kg) or bromocriptine (5 mg/kg) plus GBR 12909 (5 mg/kg). […] Again, increasing central dopaminergic neuronal activity and decreasing central norepinephrine neuronal activity simultaneously produces synergistic reductions in metabolic disorders. […] BC alone had no effect on plasma insulin level (FIG. 21).

As for `CC(C)C[C@H]1C(=O)N2CCC[C@H]2[C@]2(O)O[C@](NC(=O)[C@@H]3C=C4c5cccc6[nH]c(Br)c(c56)C[C@H]4N(C)C3)(C(C)C)C(=O)N12` [bromocriptine], the blood glucose level result in assay [1] is “no effect”. For the same compound, the plasma insulin level entry in assay [2] (FIG. 21) is “no effect”. Besides, the “HOMA-IR (insulin resistance)” value in assay [2] (FIG. 22) is given as “no significant effect”.
